In patent US20140350370A1, “GLUCOSE SENSING ASSAY” (The Texas A&M University System, priority 2013, published 2014):
Where two headings read alike, the source gives them in different places.

Assays:
[1] = target: T1, ConA (Canavalia ensiformis, UniProt P02866); settings: cited from earlier work
[2] = target: T1, ConA
Experimental: To explore whether the interaction of ConA with the core trimannose leads to aggregation in free solution, dynamic light scattering (DLS) measurements were performed. […] The TRIS buffer was 10 mM TRIS, 1 M NaCl, 1 mM CaCl2, 1 mM MnCl2, at pH 7.4. The dextran was 2 MDa and used as received from Sigma.
As controls, solutions of the individual components were also scanned to determine the particle size in the absence of aggregation. The final concentration was 3 μM for the competing ligand and 3 μM for ConA. Negative controls were run for each competing ligand (3 μM) without ConA present. ConA was also independently added to a separate control cuvette (3 μM). All solutions were in TRIS buffer and were filtered prior to combining the solutions. After 12 hours, the solutions were mixed to allow for the re-suspension of any settled material and dynamic light scattering studies were performed. The reported data is the average particle size as determined by percent-volume.

Q: With `OC[C@H]1O[C@H](OC[C@H]2OC(O)[C@@H](O)[C@@H](O[C@H]3O[C@H](CO)[C@@H](O)[C@H](O)[C@@H]3O)[C@@H]2O)[C@@H](O)[C@@H](O)[C@@H]1O` (stereo partly drawn) [trimannose, 3,6-Di-O-(α-D-mannopyranosyl)-D-mannopyranose] as the compound, how does the “affinity to ConA” value ([1]; previously shown / literature value) read?
A: Its value is roughly 330000 M⁻¹.

Q: And the “average size of particles in solution with ConA” value ([2]; 3 μM ligand, 3 μM ConA, TRIS buffer, 12 hours, 22° C., DLS)?
A: Its value is “did not increased in size”.

Q: And the “aggregation when paired with ConA” value ([2]; summary statement, DLS study)?
A: Its value is “no aggregation”.

Q: For `O=C[C@H](O)[C@@H](O)[C@@H](O)[C@H](O)CO` [galactose], which “affinity to ConA” value [1] is on record?
A: Its value is “no affinity”.

Q: Which “binding affinity to ConA relative to glucose” value ([1]; known value) does the source give for methyl mannose here?
A: Its value is 20-40 times.
